Measurements: patent US6538037B2, “Methods for preparation and use of 1α,24(S)-dihydroxyvitamin D2” (Bone Care International, Inc., priority 1991, dated 2003)
Like-named read-outs stand apart in the source and are kept apart here.

What was measured:
[1] = biological target: T1, vitamin D serum binding protein (DBP) (Rattus norvegicus, UniProt P04276); assay: Affinity for vitamin D serum binding protein using vitamin D deficient rat serum
T1 construct: assessed using vitamin D deficient rat serum; from tissue; host or cells: vitamin D deficient rat serum
T1 sequence (P04276 17-476): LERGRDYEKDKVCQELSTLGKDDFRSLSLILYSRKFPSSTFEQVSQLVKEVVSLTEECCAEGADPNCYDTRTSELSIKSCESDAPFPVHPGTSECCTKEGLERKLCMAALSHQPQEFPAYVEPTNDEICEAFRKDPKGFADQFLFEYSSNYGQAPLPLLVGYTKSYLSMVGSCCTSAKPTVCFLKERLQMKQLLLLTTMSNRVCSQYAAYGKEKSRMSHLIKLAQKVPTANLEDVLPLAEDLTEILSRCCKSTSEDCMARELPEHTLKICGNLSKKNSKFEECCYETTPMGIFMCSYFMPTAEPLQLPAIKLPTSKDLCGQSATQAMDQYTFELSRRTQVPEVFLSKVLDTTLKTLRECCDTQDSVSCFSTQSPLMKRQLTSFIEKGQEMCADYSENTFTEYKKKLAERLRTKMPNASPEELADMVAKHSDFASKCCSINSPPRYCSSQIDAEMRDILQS
Excerpt: In addition, the weak binding by the DBP was indicative of more rapid clearance, allowing for low toxicity.

Human keratinocytes = assay: Epidermal cell differentiation and proliferation testing; type: cell-based; conditions: 0.05 to 5 μg/ml, versus control cultures
Procedure: Human keratinocytes are cultured according to known modifications of the system originally described by Rheinwald and Green (Cell, vol.6, p.331 (1975)). The 1α,24(S)-dihydroxyvitamin D2, dissolved in ethanol, is added to cells to yield a variety of concentrations between 0.05 and 5 μg/ml with the ethanol concentration not to exceed 0.5% v/v. Control cultures are supplemented with ethanol at a final concentration of 0.5% v/v. Differentiation and proliferation of epidermal cells in culture is examined by:
1. quantitation of cornified envelopes;
2. quantitation of cell density of cells attached to disks;
3. monitoring transglutaminase activity; or
4. monitoring DNA synthesis by incorporation of ^3H-thymidine.

HL-60 promyelocytes = assay: HL-60 cell differentiation assay; type: cell-based; conditions: dose-response study
Procedure: A dose-response study is conducted with 1α,24(S)-(OH)2D2 in the HL-60 cell differentiation assay as described by DeLuca and Ostrom (DeLuca, H. F. and Ostrem, V. K., Prog. Clin. Biol. Res., vol. 259, pp. 41-55 (1988)). In this study, 1α,25-(OH)2D3 is used as a positive control and appropriate solvents are used as negative controls. The following variables are evaluated: nonspecific acid esterase activity, nitroblue tetrazolium (NBT) reduction, and thymidine incorporation.

[2] = Prophylaxis of postmenopausal bone loss; type: in vivo, human; conditions: at or above 1.0 μg/day, 24 to 36 months
Procedure: A clinical study is conducted with healthy postmenopausal women having ages between 55 and 60 years. The study involves up to 80 patients randomly divided into two treatment groups, and continues for 24 to 36 months. One treatment group receives a constant dosage of 1α,24(S)-dihydroxyvitamin D2 (u.i.d.; a dose level at or above 1.0 μg/day) and the other receives a matching placebo. The study is conducted as indicated in Example 2 above.

[3] = Preventive treatment of bone mass loss in postmenopausal osteoporotic women; type: in vivo, human; conditions: at or above 1.0 μg/day, 24 to 36 months
Procedure: A clinical study is conducted with postmenopausal osteoporotic out-patients having ages between 55 and 75 years. The study involves up to 120 patients randomly divided into three treatment groups and continues for 24 to 36 months. Two of the treatment groups receive constant dosages of 1α,24(S)-dihydroxyvitamin D2 (u.i.d.; two different dose levels at or above 1.0 μg/day) and the other group receives a matching placebo. All patients maintain a normal intake of dietary calcium (500 to 800 mg/day) and refrain from using calcium supplements. Efficacy is evaluated by pre-and post-treatment comparisons of the patient groups with regard to (a) total body calcium retention, and (b) radial and spinal bone mineral density as determined by dual-photon absorptiometry (DPA) or dual-energy x-ray absorptiometry (DEXA). Safety is evaluated by comparisons of urinary hydroxyproline excretion, serum and urine calcium levels, creatinine clearance, blood urea nitrogen, and other routine determinations.

[4] = tested on: human cancer cell lines BCA-1 or ZR-75-1 (breast) and COL-1 (colon); assay: Antiproliferative activity in human cancer cell lines (thymidine incorporation); type: cell-based; conditions: dose-response studies
Procedure: Dose-response studies are conducted with 1α,24(S)-(OH)2D2 in a battery of human cancer cell lines. These cell lines include, but are not limited to, the following: BCA-1 or ZR-75-1 (breast) and COL-1 (colon), as described by Shieh, H. L. et al. Chem. Biol. Interact., vol. 81, pp. 35-55 (1982). In this study, appropriate solvents are used as negative controls.

[5] = Dermatological testing, topical treatment of dermatitis; type: in vivo, human; conditions: ointment 10 μg per gram, twice daily
Procedure: Compositions containing 1α,24(S)-dihydroxyvitamin D2 are evaluated for therapeutic efficacy of the composition in the topical treatment of dermatitis (contact and ectopic). The composition evaluated is an ointment containing 10 μg of 1α,24-dihydroxyvitamin D2 per gram of ointment in a petrolatum-almond oil base. […] The patients are treated in an out-patient clinic. They are instructed to use the preparation two times a day.
The ointment is as far as possible applied to a single lesion, or to an area of the disease. The ointment and its container are weighed before the treatment starts and returned with any unused contents for reweighing at the end of the treatment.
The area of the lesion treated is estimated and recorded, and the lesion is photographed as required, together with suitable “control” lesions. The latter are preferably lesions of similar size and stage of development, either in the vicinity of the treated lesion or symmetrically contralateral. Relevant details of the photographic procedure are recorded so as to be reproduced when the lesions are next photographed (distance, aperture, angle, background, etc.). The ointment is applied twice daily and preferably left uncovered. The “control” lesions are left untreated, but if this is not possible, the treatment used on them is noted. […]

## C=C1/C(=C\C=C2/CCC[C@]3(C)[C@@H]([C@H](C)/C=C/[C@@](C)(O)C(C)C)CC[C@@H]23)C[C@@H](O)C[C@@H]1O [1α,24(S)-(OH)2D2, 1α,24(S)-dihydroxyvitamin D2]
[1]
  binding affinity for the vitamin D serum binding protein (in words): relatively poor binding affinity
[1]; listed as 1α,24(S)-dihydroxyvitamin D2
  binding affinity for the vitamin D serum binding protein (in words): more weakly than does 1,25-(OH)2D3
[1]; vitamin D deficient rat serum
  binding of DBP relative to 25-OH-D3: at least 1000 times weaker
Human keratinocytes
  DNA synthesis by incorporation of 3H-thymidine: lower DNA synthesis
  cell density of cells attached to disks: fewer attached cells
  cornified envelopes: more cornified envelopes
  transglutaminase activity: higher transglutaminase activity
HL-60 promyelocytes
  differentiation of HL-60 promyelocytes to monocytes: potent activity in promoting differentiation
[2]
  losses in total body calcium, radial or spinal bone densities relative to baseline: reduced losses in total body calcium, radial or spinal bone densities
  monitored safety parameters: confirm the safety of long-term 1α,24(S)-dihydroxyvitamin D2 administration
[3]
  incidence of hypercalcemia or hypercalciuria: insignificant incidence of hypercalcemia or hypercalciuria
  total body calcium, radial and spinal bone densities relative to placebo: significantly higher total body calcium, and radial and spinal bone densities
[4]
  antiproliferative activity, inhibition of thymidine incorporation: potent (and reversible) antiproliferative activity
[5]
  incidence of hypercalcemia: insignificant incidence of hypercalcemia
[5]; four to six weeks
  lesion severity scores (erythema, scaling, thickness; 0 to 3): lower scores than the control lesions
